For eight compounds, TGI results are on record in PubChem BioAssay (NCI).

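Method: 48-hour compound exposure of cells in 96-well plates, five concentrations, linear interpolation of endpoints. TGI: concentration producing complete growth inhibition.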

Test systems include HOP-92 NSCLC; HL-60(TB) leukemia; A498 renal; SK-MEL-2 melanoma; BT-549 breast; MCF7 breast; UACC-257 melanoma; HOP-62 NSCLC; MALME-3M melanoma; SNB-19 CNS; SK-MEL-28 melanoma; SK-OV-3 ovarian; U251 CNS; ACHN renal; HT29 colon; SN12C renal; HCC-2998 colon; EKVX NSCLC; K-562 leukemia; MDA-N.
What all share (test): NCI tumour cell line growth inhibition, 48 h

Take `COC(=O)Nc1nc2ccc(S(=O)(=O)SC)cc2[nH]1`: the TGI in the assay with HOP-92 NSCLC was determined as 28 µM; with HL-60(TB) leukemia it was 8.11 µM; with A498 renal, 99.7 µM; with SK-MEL-2 melanoma, 26.9 µM; with BT-549 breast it was 22.7 µM; in the assay with MCF7 breast, 27 µM. Besides, the TGI in the assay with UACC-257 melanoma was 45.5 µM; in the assay on HOP-62 NSCLC, above 100 µM; in the assay with MALME-3M melanoma it was 25.6 µM; in the assay with SNB-19 CNS, above 100 µM; with SK-MEL-28 melanoma it was 25.3 µM; with SK-OV-3 ovarian, 43 µM. Also, the TGI with U251 CNS came out at 29.9 µM; in the assay with ACHN renal, 23.9 µM; with HT29 colon it was 11.1 µM; with SN12C renal it was 37.1 µM; with HCC-2998 colon, 42.4 µM; in the assay with EKVX NSCLC, 62.5 µM. Further, the TGI with K-562 leukemia is above 100 µM.

As to `COc1cc(OC)c2c(C)cc(=O)oc2c1`, the TGI was 76.5 µM in the assay on A498 renal; above 100 µM in the assay with SK-MEL-2 melanoma; above 100 µM with MCF7 breast; above 100 µM with UACC-257 melanoma; above 100 µM in the assay on MDA-N; above 100 µM in the assay on HOP-62 NSCLC. The TGI in the assay on MALME-3M melanoma, with SNB-19 CNS, with SK-MEL-28 melanoma, in the assay with SK-OV-3 ovarian, with U251 CNS and in the assay on ACHN renal was above 100 µM in each case. Further, the TGI with HT29 colon, with SN12C renal, in the assay on EKVX NSCLC and in the assay with K-562 leukemia was above 100 µM each time.

Consider `CCO/C=N\C1=C(C#N)SC2=N/C(=C\c3ccc(OC)cc3)C(=O)N21`, for which the TGI with HOP-92 NSCLC, in the assay with HL-60(TB) leukemia, in the assay with A498 renal, in the assay with MCF7 breast, with UACC-257 melanoma and in the assay on MDA-N was above 100 µM each time. Also, the TGI in the assay with MALME-3M melanoma, in the assay on SNB-19 CNS, in the assay with SK-MEL-28 melanoma, in the assay on SK-OV-3 ovarian, in the assay on U251 CNS and with ACHN renal was above 100 µM each time. Besides, the TGI in the assay with HT29 colon, in the assay with SN12C renal, in the assay on HCC-2998 colon, in the assay on EKVX NSCLC and in the assay with K-562 leukemia was above 100 µM throughout.

As for `CSc1cc(Cl)c(C)cc1S(=O)(=O)NC(=O)NNc1cccc(C(F)(F)F)n1`, the TGI in the assay with A498 renal, in the assay on SK-MEL-2 melanoma, in the assay on MCF7 breast, in the assay on MDA-N, in the assay on HOP-62 NSCLC and with MALME-3M melanoma was above 100 µM in each case. Moreover, the TGI with SNB-19 CNS, in the assay on SK-MEL-28 melanoma, in the assay on SK-OV-3 ovarian, with U251 CNS, in the assay with ACHN renal and in the assay on HT29 colon was above 100 µM each time. The TGI in the assay with SN12C renal, in the assay with HCC-2998 colon, with EKVX NSCLC and in the assay with K-562 leukemia was above 100 µM each time.

Turning to `O=C1NC2O[C@H](CNC(=O)c3cc(Br)c[nH]3)CC2(O)N1` (mixture of isomers), the TGI with HOP-92 NSCLC, in the assay with HL-60(TB) leukemia, with A498 renal, in the assay with SK-MEL-2 melanoma, in the assay on BT-549 breast and in the assay with MCF7 breast was above 100 µM each time. For the same compound, the TGI in the assay on UACC-257 melanoma, in the assay on HOP-62 NSCLC, in the assay with MALME-3M melanoma, with SNB-19 CNS, with SK-MEL-28 melanoma and in the assay with SK-OV-3 ovarian was above 100 µM in each case. Moreover, the TGI in the assay with U251 CNS, with ACHN renal, with HT29 colon, in the assay on SN12C renal, in the assay on EKVX NSCLC and in the assay with K-562 leukemia was above 100 µM in each case.

In the case of `CCCCC1Cc2ccccc2-c2nc3ccccc3n21` (configuration not stated), the TGI in the assay on HOP-92 NSCLC was 30.8 µM; in the assay with HL-60(TB) leukemia, 0.231 µM; in the assay with A498 renal it was 30.6 µM; in the assay on SK-MEL-2 melanoma, 30.7 µM; in the assay with MCF7 breast, 32.9 µM; with UACC-257 melanoma it was 32.2 µM. In addition, the TGI in the assay on MDA-N stood at 29.2 µM; in the assay with HOP-62 NSCLC, 36.5 µM; with SK-MEL-28 melanoma, 31 µM; with SK-OV-3 ovarian it was 37.5 µM; in the assay with U251 CNS, 30.9 µM; in the assay on ACHN renal, 31 µM. In addition, the TGI in the assay with HT29 colon came to 29.6 µM; in the assay with HCC-2998 colon, 27.8 µM; with EKVX NSCLC, 50 µM; with K-562 leukemia it was 31.7 µM.

Turning to `CCOC1=NC(O)c2cccn2-c2sccc21` (configuration not stated), the TGI in the assay on HOP-92 NSCLC, with A498 renal, in the assay with SK-MEL-2 melanoma, in the assay on MCF7 breast, in the assay on MDA-N and in the assay with HOP-62 NSCLC was above 100 µM in each case. Also, the TGI in the assay on MALME-3M melanoma, in the assay on SNB-19 CNS, in the assay with SK-MEL-28 melanoma, in the assay on SK-OV-3 ovarian, with U251 CNS and in the assay with ACHN renal was above 100 µM throughout. In addition, the TGI in the assay on HT29 colon, in the assay on SN12C renal, in the assay on HCC-2998 colon and with K-562 leukemia was above 100 µM throughout.

As for `O=[N+]([O-])c1ccc(S(=O)(=O)n2c3ccc(Br)cc3c3nc4ccccc4nc32)cc1`, the TGI in the assay with HOP-92 NSCLC, with A498 renal, with SK-MEL-2 melanoma, with UACC-257 melanoma, in the assay with MDA-N and in the assay on HOP-62 NSCLC was above 100 µM each time. In addition, the TGI in the assay with SNB-19 CNS, in the assay with SK-MEL-28 melanoma, with U251 CNS, in the assay on ACHN renal, in the assay on HT29 colon and in the assay on SN12C renal was above 100 µM in each case. For the same compound, the TGI in the assay on HCC-2998 colon and in the assay on K-562 leukemia was above 100 µM in each case.
